Measurements: patent US20220283165A1, “Methods of Enhancing Immunogenicity of Cancers” (The Board of Trustees of the Leland Stanford Junior …, priority 2019, published 2022)

Key:
Myc-Max complex = target: T1, Myc-Max complex (Homo sapiens, UniProt P01106); details: HL60 cells; cited from earlier work
T1 construct: host or cells: HL60 cells (for 10058-F4 only)

[1] = system: Siglec-7 ligands on primary human T-ALL cells; assay: Siglec-7 ligands on patient T-ALL liquid biopsies treated with MYC inhibitor; type: cell-based; details: FACS-sorted primary T-ALL cells, 48 hours; two of three patients had Siglec-7-Fc binding
Experimental: (§1) ST6GALNAC4 or pharmacologic MYC inhibition for 48 hours by incubation with 100 μM 10058-F4 (n(control)=8, n(KO)=4, n(inhibitor)=6, two-tailed Mann-Whitney U test). Data presented as mean ±s.d. Panel C: Representative Western blot for ST6GALNAC4 in PEER cells following MYC inhibition with 100 μM 10058-F4 for 48 hours. Data representative of two independent experiments. Panel D: Workflow to collect primary T-ALL from patients, treat with a MYC inhibitor (10058-F4), and quantify Siglec-7 ligands. Panel E: Siglec-7 ligands on patient T-ALL liquid biopsies treated with the indicated concentration of 10058-F4 for 48 hours. Data represent three donors. Panel F: Correlation of ST6GALNAC4 and MYC mRNA (RNA-seq) gene expression across all hematopoietic tumor samples (n=106) in the CCLE with MYC expression>3. Correlation determined by least squares regression. Panel G: Survival Z-score heatmap for each sialyltransferase across each hematopoietic tumor within the PRECOG database. […] Panel H: Siglec-7 ligand display by KARPAS-422 DLBCL cells following treatment with 10058-F4 for 48 hours (n=3 per group, two-tailed Student's t-test). Data presented as mean±s.d. […] Monocyte prevalence was calculated as a fraction of all lymphocytes. […]
Assessed next was whether T-ALL liquid biopsies display Siglec-7 ligands susceptible to MYC regulation. […]

ST6GALNAC4 = assay: Western blot for ST6GALNAC4 in PEER cells after MYC inhibition; type: cell-based, human; details: 100 μM 10058-F4 for 48 hours
Experimental: as §1, with “mean±s.d. Panel I: Survival stratified by median MYC and ST6GALNAC4 expression in a cohort of DLBCL patients (GSE4475). HR, hazard ratio from Cox Proportional Hazards model.” for “mean±s.d.”

[2] = system: Siglec-7 ligands on PEER cells; assay: Siglec-7 ligand display (Siglec-7-Fc staining, flow cytometry) on PEER cells after MYC or CDK7/9 inhibition; type: cell-based, human; details: 48 hours, 10058-F4 at 100 μM
Experimental: as §1, with “mean±s.d. Panel I: Survival stratified by median MYC and ST6GALNAC4 expression in a cohort of DLBCL patients (GSE4475). HR, hazard ratio from Cox Proportional Hazards model.” for “mean±s.d.”

[3] = system: Siglec-7 ligands on KARPAS-422 DLBCL cells; assay: Siglec-7 ligand display by KARPAS-422 DLBCL cells after MYC inhibition; type: cell-based, human; details: 48 hours
Experimental: as §1, with “mean±s.d. Panel I: Survival stratified by median MYC and ST6GALNAC4 expression in a cohort of DLBCL patients (GSE4475). HR, hazard ratio from Cox Proportional Hazards model.” for “mean±s.d.”

[4] = system: hematopoietic cancers and pancreatic ductal adenocarcinoma (PDAC) exhibiting C-MYC overexpression; details: in vitro and in vivo; cited from earlier work
[5] = system: MYCN-amplified neuroblastoma; details: xenograft model; cited from earlier work
[6] = system: MYC-overexpressing T-cell acute lymphoblastic leukemia, mixed-lineage leukemia, neuroblastomas, small cell lung cancers; details: cited from earlier work
c-Myc = details: P53-mutant human hepatocellular carcinoma cells; cited from earlier work
Myc-AURKA complex = Myc-AURKA complex (Homo sapiens, UniProt O14965); details: MYCN-amplified neuroblastomas; cited from earlier work
Sequence of Myc-AURKA complex (O14965 whole entry, one chain of several): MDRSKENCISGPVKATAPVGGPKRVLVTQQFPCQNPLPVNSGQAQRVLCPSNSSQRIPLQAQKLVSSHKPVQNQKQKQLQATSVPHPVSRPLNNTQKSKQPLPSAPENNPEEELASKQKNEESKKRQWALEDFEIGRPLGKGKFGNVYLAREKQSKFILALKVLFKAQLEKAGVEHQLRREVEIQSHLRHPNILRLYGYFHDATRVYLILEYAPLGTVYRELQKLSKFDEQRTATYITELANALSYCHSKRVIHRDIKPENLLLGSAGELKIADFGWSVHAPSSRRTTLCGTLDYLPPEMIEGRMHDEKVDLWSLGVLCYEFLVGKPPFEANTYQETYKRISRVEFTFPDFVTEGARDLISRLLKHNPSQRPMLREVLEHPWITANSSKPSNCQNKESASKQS

T1 sequence (P01106 whole entry, one chain of several): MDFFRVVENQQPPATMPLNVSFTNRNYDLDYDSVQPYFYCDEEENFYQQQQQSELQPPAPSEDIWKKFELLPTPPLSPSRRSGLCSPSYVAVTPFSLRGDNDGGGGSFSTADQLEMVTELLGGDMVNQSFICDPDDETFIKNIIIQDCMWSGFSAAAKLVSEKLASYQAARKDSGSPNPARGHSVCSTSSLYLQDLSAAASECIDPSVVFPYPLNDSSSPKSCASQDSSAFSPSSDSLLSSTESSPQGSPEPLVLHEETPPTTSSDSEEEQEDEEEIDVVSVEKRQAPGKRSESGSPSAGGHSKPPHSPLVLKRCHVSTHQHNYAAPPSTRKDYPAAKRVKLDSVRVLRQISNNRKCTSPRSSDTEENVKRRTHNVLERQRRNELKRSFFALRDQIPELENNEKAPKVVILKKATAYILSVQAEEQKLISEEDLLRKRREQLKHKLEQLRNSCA

CCc1ccc(/C=C2/SC(=S)NC2=O)cc1 [10058-F4]
disruption of the Myc-Max complex (Myc-Max complex): capable of disrupting the Myc-Max complex
Siglec-7 ligand display [1]: reduced Siglec-7 ligand display
ST6GALNAC4 protein expression (ST6GALNAC4): diminished ST6GALNAC4 protein expression
Siglec-7-Fc binding (Siglec-7 ligands) [2]: reduced Siglec-7-Fc binding
reduction in Siglec-7 ligand abundance [3]: 70%

Cc1sc2c(c1C)C(c1ccc(Cl)cc1)=N[C@@H](CC(=O)OC(C)(C)C)c1nnc(C)n1-2 [JQ1]
anti-cancer effects [4]: potent anti-cancer effects both in vitro and in vivo

CC(=O)c1cc([N+](=O)[O-])c(Sc2ccc(F)cc2F)s1 [P22077]
growth of MYCN-amplified neuroblastoma [5]: markedly suppressed growth

CN(C)C/C=C/C(=O)Nc1ccc(C(=O)Nc2cccc(Nc3ncc(Cl)c(-c4c[nH]c5ccccc45)n3)c2)cc1 [THZ1]
ST6GALNAC4 protein expression (ST6GALNAC4): diminished ST6GALNAC4 protein expression
anti-tumor effects [6]: potent anti-tumor effects
Siglec-7-Fc binding (Siglec-7 ligands) [2]: reduced Siglec-7-Fc binding

COc1cc(Nc2ncc3c(n2)-c2ccc(Cl)cc2C(c2c(F)cccc2OC)=NC3)ccc1C(=O)O [MLN8237]
c-Myc degradation (c-Myc): induced c-Myc degradation
N-Myc degradation and tumor regression (Myc-AURKA complex): N-Myc degradation and tumor regression

O=C(O)c1ccc(Nc2ncc3c(n2)-c2ccc(Cl)cc2C(c2c(F)cccc2F)=NC3)cc1 [MLN8054]
N-Myc degradation and tumor regression (Myc-AURKA complex): N-Myc degradation and tumor regression
